# Test results as given in patent US10071976B2, “Small molecule fatty acid synthase inhibitors” (Sanford Burnham Prebys Medical Discovery Institute, priority 2014, dated 2018).
# Like-named read-outs stand apart in the source and are kept apart here.
# Experiments:
# FASN = biological target: T1, FASN (Homo sapiens, UniProt P49327); experiment: Competition with activity-based probe FP-PEG-TAMRA in PC-3 whole cell lysate: FASN; type: binding; conditions: PC-3 lysate, 20 μM final, pH 7.8
# T1 construct: lysates of the prostate tumor line (PC3), which expresses FASN; endogenous in cells; host or cells: PC-3 prostate tumour cells (whole cell lysate)
# Description: (§1) Studies were conducted to determine the selectivity of compound 16 for FASN over other human thioesterases. The ability of the compounds to bind the FASN holoenzyme was tested by assessing their ability to compete for the binding of an activity-based probe that covalently attaches to the active site of the FASN thioesterase. Thioesterases are members of the serine hydrolase family, which also includes a number of other types of enzymes including proteases, dipeptidyl peptidases, epoxide hydrolases, etc. To help assess the selectivity of compound 16, an activity-based probe polyethyleneglycol-6-carboxytetramethyl-rhodamine (FP-PEG-TAMRA) that binds covalently to the catalytic serine of all serine hydrolases was used. These studies were done by assessing the ability of compound 16 to compete for the binding of the activity-based probe in whole cell lysates. Several analogs of compound 16 were tested in this assay using lysates of the prostate tumor line (PC3), which expresses FASN, along with numerous other serine hydrolases. The PC-3 lysate was incubated with 8 different FASN inhibitors, including compounds 1, 16 and 97. Then the activity-based probe (FP-PEG-TAMRA) was added to each sample to label the serine hydrolases in the lysate.
# [1] = test system: other serine hydrolases in the lysate; experiment: Competition with activity-based probe FP-PEG-TAMRA in PC-3 whole cell lysate: other serine hydrolases; type: binding, human; conditions: PC-3 lysate, 20 μM final, pH 7.8
# Description: as §1
# [2] = Chemical stability in 1x PBS; type: physicochemical
# PAMPA permeability = type: in vitro ADME; conditions: for Papp: PAMPA, read-out: PAMPA Permeability, Pe
# Description: The PAMPA (Parallel Artificial Membrane Permeability Assay) assay was used as an in vitro model of passive, transcellular permeability. An artificial membrane immobilized on a filter was placed between a donor and acceptor compartment. At the start of the test, drug was introduced in the donor compartment. Following the permeation period, the concentration of drug in the donor and acceptor compartments was measured using UV spectroscopy.
# [3] = Plasma protein binding, mouse; type: in vitro ADME; conditions: read-out: Plasma Protein Binding (% Bound) (converted)
# Description: Plasma protein binding was a measure of a drug's efficiency to bind to the proteins within blood plasma. The less bound a drug is, the more efficiently it can traverse cell membranes or diffuse. […] In contrast, drugs that remain largely unbound in plasma are generally available for distribution to other organs and tissues.
# Plasma stability, mouse = type: in vitro ADME
# Description: Plasma stability is a measure of the stability of small molecules and peptides in plasma and is an important parameter, which can strongly influence the in vivo efficacy of a test compound. Drug candidates are exposed to enzymatic processes (proteinases, esterases) in plasma, and they can undergo intramolecular rearrangement or bind irreversibly (covalently) to proteins.
# [4] = Hepatic microsome stability, mouse; type: in vitro ADME
# Description: The microsomal stability assay is commonly used to rank compounds according to their metabolic stability. This assay addresses the pharmacologic question of how long the parent compound will remain circulating in plasma within the body.
# in vitro = conditions: human
# T1 sequence (P49327 whole entry): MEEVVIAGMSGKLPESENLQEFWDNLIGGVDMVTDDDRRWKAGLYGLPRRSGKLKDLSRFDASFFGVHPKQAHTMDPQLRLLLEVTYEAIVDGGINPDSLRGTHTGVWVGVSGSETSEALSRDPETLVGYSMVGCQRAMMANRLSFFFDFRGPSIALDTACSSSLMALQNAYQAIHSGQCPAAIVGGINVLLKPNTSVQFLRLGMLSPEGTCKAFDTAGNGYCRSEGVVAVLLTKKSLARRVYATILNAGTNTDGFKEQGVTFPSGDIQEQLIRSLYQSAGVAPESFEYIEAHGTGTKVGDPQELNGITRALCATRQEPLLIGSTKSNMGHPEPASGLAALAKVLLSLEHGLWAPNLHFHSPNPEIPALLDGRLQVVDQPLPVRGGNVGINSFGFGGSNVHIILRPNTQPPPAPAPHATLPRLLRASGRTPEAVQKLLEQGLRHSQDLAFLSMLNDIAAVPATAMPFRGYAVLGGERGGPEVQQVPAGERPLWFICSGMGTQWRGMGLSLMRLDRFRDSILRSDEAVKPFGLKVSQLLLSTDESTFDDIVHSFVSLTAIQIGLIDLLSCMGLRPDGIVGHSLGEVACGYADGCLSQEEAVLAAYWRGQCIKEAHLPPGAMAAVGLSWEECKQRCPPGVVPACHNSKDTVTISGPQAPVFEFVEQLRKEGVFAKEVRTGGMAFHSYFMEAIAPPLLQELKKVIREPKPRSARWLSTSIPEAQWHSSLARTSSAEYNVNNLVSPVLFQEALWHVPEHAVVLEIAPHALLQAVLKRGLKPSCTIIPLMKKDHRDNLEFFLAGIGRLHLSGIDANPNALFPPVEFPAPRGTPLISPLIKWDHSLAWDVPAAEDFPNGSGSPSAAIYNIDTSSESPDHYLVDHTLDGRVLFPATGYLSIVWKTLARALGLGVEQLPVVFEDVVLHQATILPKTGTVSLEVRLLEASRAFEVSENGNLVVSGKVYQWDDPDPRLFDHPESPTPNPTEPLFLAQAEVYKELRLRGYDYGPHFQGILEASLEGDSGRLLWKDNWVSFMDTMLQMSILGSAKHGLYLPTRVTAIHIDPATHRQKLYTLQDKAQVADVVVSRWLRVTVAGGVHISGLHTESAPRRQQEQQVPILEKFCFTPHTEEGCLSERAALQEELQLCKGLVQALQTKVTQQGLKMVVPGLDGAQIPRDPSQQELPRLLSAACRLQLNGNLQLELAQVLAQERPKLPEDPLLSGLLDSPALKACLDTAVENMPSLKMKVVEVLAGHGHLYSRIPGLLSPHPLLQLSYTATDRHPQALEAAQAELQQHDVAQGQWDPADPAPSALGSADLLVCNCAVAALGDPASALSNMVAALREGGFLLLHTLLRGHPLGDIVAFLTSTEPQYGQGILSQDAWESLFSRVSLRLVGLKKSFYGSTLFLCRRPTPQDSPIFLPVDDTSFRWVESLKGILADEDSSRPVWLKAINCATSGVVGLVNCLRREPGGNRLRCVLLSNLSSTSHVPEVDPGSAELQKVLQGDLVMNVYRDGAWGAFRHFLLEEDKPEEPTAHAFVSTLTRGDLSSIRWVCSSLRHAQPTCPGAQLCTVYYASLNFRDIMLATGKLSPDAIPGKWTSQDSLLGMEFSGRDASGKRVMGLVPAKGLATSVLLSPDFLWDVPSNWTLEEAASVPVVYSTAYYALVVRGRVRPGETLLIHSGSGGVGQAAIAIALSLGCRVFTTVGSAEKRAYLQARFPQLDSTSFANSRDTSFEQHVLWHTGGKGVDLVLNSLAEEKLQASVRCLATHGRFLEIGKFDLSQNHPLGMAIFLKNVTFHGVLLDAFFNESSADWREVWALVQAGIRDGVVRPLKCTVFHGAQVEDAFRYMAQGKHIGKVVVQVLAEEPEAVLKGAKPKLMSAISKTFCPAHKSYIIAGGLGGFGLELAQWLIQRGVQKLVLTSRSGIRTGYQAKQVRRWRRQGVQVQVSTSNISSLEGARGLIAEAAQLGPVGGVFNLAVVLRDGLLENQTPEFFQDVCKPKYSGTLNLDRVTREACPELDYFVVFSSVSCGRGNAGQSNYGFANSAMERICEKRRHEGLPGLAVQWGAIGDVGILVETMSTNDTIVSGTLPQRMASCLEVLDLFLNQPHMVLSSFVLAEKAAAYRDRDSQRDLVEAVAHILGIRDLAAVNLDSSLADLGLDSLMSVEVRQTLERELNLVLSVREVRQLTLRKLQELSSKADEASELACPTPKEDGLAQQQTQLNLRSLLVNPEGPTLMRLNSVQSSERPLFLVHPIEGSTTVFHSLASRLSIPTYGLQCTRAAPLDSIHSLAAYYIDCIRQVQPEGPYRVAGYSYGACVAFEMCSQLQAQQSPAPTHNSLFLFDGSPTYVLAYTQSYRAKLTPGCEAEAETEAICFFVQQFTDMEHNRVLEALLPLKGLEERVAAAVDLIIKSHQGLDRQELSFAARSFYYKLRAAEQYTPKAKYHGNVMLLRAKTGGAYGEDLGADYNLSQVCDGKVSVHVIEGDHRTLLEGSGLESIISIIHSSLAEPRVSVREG
smiles,measurement,setting,value
"CCC(CC)C(=O)Nc1nc(-c2ccc(S(=O)(=O)N3CCOCC3)cc2)cs1 [Compound 16, 2-Ethyl-N-(4-(4-(morpholinosulfonyl)phenyl)thiazol-2-yl)butanamide]",inhibition of FASN (blocking of FP-TAMRA binding),FASN,showed inhibition of FASN
same,competition for activity based labeling of other serine hydrolases,[1],no competition
same,Chemical Stability in 1x PBS pH 7.4 (% remaining after 48 hrs),"[2]; 1x PBS pH 7.4, 48 hrs",100/100%
same,Chemical Stability in 1x PBS pH 7.4 with 50% ACN (% remaining after 48 hrs),"[2]; with 50% ACN, 48 hrs",100/100%
same,Papp,"PAMPA permeability; Donor pH 5.0, Acceptor pH 7.4",914 ×10⁻⁶ cm/s
same,Papp,"PAMPA permeability; Donor pH 6.2, Acceptor pH 7.4",961 ×10⁻⁶ cm/s
same,Papp,"PAMPA permeability; pH 7.4, Donor pH 7.4, Acceptor pH 7.4",653 ×10⁻⁶ cm/s
same,PAMPA permeability,PAMPA permeability; across a range of pH of the donor compartment,very good permeability
same,fraction unbound at 1 μM,[3]; 1 μM,0.0381
same,fraction unbound at 10 μM,[3]; 10 μM,0.0337
same,Plasma Stability (% Remaining at 3 hrs),"Plasma stability, mouse; Mouse, 3 hrs",100/100%
same,plasma stability,"Plasma stability, mouse; mouse plasma",good stability
same,Hepatic Microsome Stability (% Remaining at 1 hr),"[4]; Mouse, 1 hr",6.37%
same,liver microsome stability,[4]; mouse liver microsomes,poor stability
same,CC50,in vitro,> 50 µM
